# Data from patent US20060257481A1, “Sustained release formulation and dosing schedule of leukotriene synthesis inhibitor for human therapy” (deCODE Genetics ehf., priority 2005, published 2006).
# Assays:
# MPO [1] = test: Study DG-031-201: MPO in plasma; format: in vivo, human; settings: difference visit 2 to visit 5; 500 and 750 mg/day vs placebo cohort
# Procedure: (§1) Patients who met the study eligebility criteria were enrolled and randomized into 3 different dose-level groups: (1) 64 patients on 250 mg/day therapy with DG-031 (250 mg q.d.), vs placebo; (2) 64 patients on 500 mg/day therapy with DG-031 (250 mg b.i.d.) vs placebo; and (3) 63 patients on 750 mg/day therapy with DG-031 (250 mg t.i.d.) vs placebo. […] All patients received 3 tablets per day. Treatment periods, 4 weeks in duration each, were separated by a 2-week washout period. The placebo tablets were identical in shape, color, form and taste to the active tablets except that they contained no active drug ingredients. Treatment with DG-031 or placebo was in addition to the subject's standard care, including all medications and treatment plan as prescribed by the subject's cardiologist prior to enrolment. A total of 191 subjects were enrolled, with 172 completing all 8 visits or 8 patients short of the target of 180 patients. […]
# (§2) All data were analyzed according to a pre-established statistical analysis plan (SAP) and by intention-to-treat (ITT). […] The difference between DG-031 and placebo treatment was the primary outcome, assessed separately for each of the biomarkers. […]
# MCP-1 = test: Study DG-031-201: MCP-1; format: in vivo, human; settings: difference visit 2 to visit 5; 500 and 750 mg/day vs placebo cohort
# Procedure: (§3) Patients who met the study eligebility criteria were enrolled and randomized into 3 different dose-level groups: (1) 64 patients on 250 mg/day therapy with DG-031 (250 mg q.d.), vs placebo; (2) 64 patients on 500 mg/day therapy with DG-031 (250 mg b.i.d.) vs placebo; and (3) 63 patients on 750 mg/day therapy with DG-031 (250 mg t.i.d.) vs placebo. […] All patients received 3 tablets per day. Treatment periods, 4 weeks in duration each, were separated by a 2-week washout period. The placebo tablets were identical in shape, color, form and taste to the active tablets except that they contained no active drug ingredients. Treatment with DG-031 or placebo was in addition to the subject's standard care, including all medications and treatment plan as prescribed by the subject's cardiologist prior to enrolment. A total of 191 subjects were enrolled, with 172 completing all 8 visits or 8 patients short of the target of 180 patients.
# as §2, with “(ITT). Each arm of the study, as well as pooled sets (combining dose levels), was considered for the primary analysis.” for “(ITT).”
# MPO [2] = test: Study DG-031-203 open label dose ranging: plasma MPO; format: in vivo, human
# Procedure: (§4) The study also collected information on the dose-related effect of DG-031 on capacity for LTB4 production (ex vivo), plasma MPO, and serum-CRP. […] The pattern observed supported a concentration dependent pharmacologic effect of DG-031 on capacity for LTB4 production measured ex vivo. The effects on LTB4 production amounted to a 30% (p=0.016) and 25% (p=0.094) reduction with the 375 mg BID and 250 mg TID doses, respectively.
# LTE4 in urine = test: Study DG-031-201: LTE4 in urine; format: in vivo, human
# Procedure: as §3
# The primary objective was to determine whether the FLAP inhibitor has a statistically significant effect, compared to placebo, on one or more biomarkers of MI risk, including: (1) ionomycin-induced LTB4 and MPO release by neutrophils ex vivo; (2) MPO, CRP, N-tyrosine, Lp-PLA2 or amyloid A in serum, or (3) LTE4 in urine. The secondary objective was to determine whether the effect of DG-031 was dose-dependent. The tertiary objective was to assess other biomarkers (See Results). Evaluation of safety and tolerability of the drug was also a primary endpoint.
# All data were analyzed according to a pre-established statistical analysis plan (SAP) and by intention-to-treat (ITT). Each arm of the study, as well as pooled sets (combining dose levels), was considered for the primary analysis. Each such set is an AB/BA cross-over design and in the primary analysis of efficacy, the levels of biomarkers of MI risk at the end of the treatment periods (visits 4 and 7) were used as primary response variables. The difference between DG-031 and placebo treatment was the primary outcome, assessed separately for each of the biomarkers. […]
# [3] = test system: MPO release by ionomycin-activated neutrophils ex vivo; test: Study DG-031-201: MPO in whole blood ex vivo after ionomycin activation; design: species or system human; settings: p=0.02
# Procedure: as §1, §2
# CRP = test: Study DG-031-203 open label dose ranging: serum CRP; format: in vivo, human
# Procedure: as §4
structure (smiles),measurement,setting,value
"O=C(O)[C@@H](c1ccc(OCc2ccc3ccccc3n2)cc1)C1CCCC1 [DG-031, (R)-(+)-alpha-cyclopentyl-4-(2-quinolinylmethoxy)-Benzeneacetic acid]","Carry-over effect, MPO in plasma",MPO [1],−0.11
same,"Carry-over effect, MCP-1",MCP-1,0.07
same,MPO in plasma,"MPO [2]; 250 mg TID, St. 203, 6 hours, P < 0.001",−37% (St. 203)
same,Drop of plasma MPO levels,"MPO [2]; 250 mg t.i.d., 6 hours after intake, [24%,47%], p<0.001",37%
same,MPO in plasma,"MPO [2]; 375 mg BID, Study 203, 6 hours, NS",−24%
same,Lowering of plasma MPO levels,"MPO [2]; 375 mg BID, p=0.067",24%
same,MPO in plasma,"MPO [2]; 375 mg QD, Study 203, 6 hours",No effect
same,"Carry-over effect, LTE4 in urine","LTE4 in urine; difference visit 2 to visit 5, 500 and 750 mg/day vs placebo cohort",−0.06
same,Increase of urine levels of LTE4,"LTE4 in urine; highest dose, [15%,40%], p<0.001",27%
same,Increase of urine levels of LTE4,"LTE4 in urine; pooled dose set 500 mg and 750 mg, [13%,30%]",21%
same,Maximum reduction in MPO production,"[3]; 750 mg/day, [2%,21%]",12%
same,Inhibition of MPO release,[3]; combined dose groups of 500 mg and 750 mg TDD,about 12%
same,"Reduction in CRP levels, high CRP group","CRP; 250 mg TID, CRP above median (1.4 mg/L) at entry, P=0.014",48%
same,CRP,"CRP; 250 mg TID, St. 203, 1 wk, p = 0.07",37% (St. 203)
same,Reduction of serum CRP,"CRP; 250 mg TID, after one week of therapy, all subjects, follow-up study 203, [9%,57%]",38%
same,CRP,"CRP; 375 mg BID, Study 203",No effect
same,Change in CRP,"CRP; 375 mg BID, all subjects, one week, p=0.94",−1%
same,"Reduction of CRP, high CRP group","CRP; 375 mg BID, p=0.16, not significant",31%
same,CRP,"CRP; 375 mg QD, Study 203, 1 wk, p = 0.021",−28%
